“Also recorded” adds a separate entry of the source. Non-standard residues stand in square brackets, D forms with d. Residues, ends and D or L forms follow the SMILES beside them. ξ: configuration not given here. *: point of attachment. Cbz = O=C(OCc1ccccc1)*; Boc = CC(C)(C)OC(=O)*; ξNle = CCCCC(N)C(=O)O
Columns and labels:
[1] = system: PS1 precursor; assay: Time course of PS1 precursor enhancement, western blot; format: cell-based, human; settings: 10 uM, lymphoblast cell line AG07622
Description: Lymphoblast cell line AG07622 was dosed in 6-well plates with 10 uM of γ-secretase inhibitor X (in 10% FBS, DMEM) for 0 hrs, 2 hrs, 4 hrs, 6 hrs and 24 hrs. Control samples containing 1% DMSO were ran in parallel to the drug treated lymphoblasts. After the specified dosing time, cells were harvested by centrifugation (5000 g, 5 min.), lysed in 2% CHAPS/TBS (with protease inhibitors) and cleared of unsolubilized cell debris by centrifugation (15,000 g, 10 min., 4 C). Total protein was determined by BCA and equivalent proteins loads of 40 ug/lane were separated on a 4-12% BisTris NuPage polyacrylamide gel (Invitrogen) then transferred to PVDF (25V, 1 hr in NuPage Transfer buffer). Western blots were probed with anti-N-term. PS1 (1:1000, Abcam cat. #ab 10281) followed by development using an anti-rabbit alkaline phosphatase conjugate, chemiluminescence detection and imaged using an Alpha Innotech FluorChem Q imaging system.

[2] = target: γ-secretase (Homo sapiens, UniProt P49768); settings: known IC50s of the inhibitors; read-out: IC50 (Abeta production); cited from earlier work
[3] = target: T1, PS1 precursor (Homo sapiens, UniProt P49768); assay: Screening of γ-secretase inhibitors for PS1 precursor (holo) enhancement, western blot; format: cell-based; set-up: key to PS1 Precursor Enhancement: −: no effect; +: some effect; ++: moderate effect; +++: strong effect; settings: ~50 uM inhibitor, 24 hrs; for PS1 Precursor Enhancement: SH-SY5Y neuroblastoma cells; for PS1 precursor (45 kDa band) level / stabilization: SY5Y neuroblastomas
T1 construct: The unprocessed or precursor form of PS1 is evidenced by a band at 45 kDa; endogenous in cells; host or cells: SH-SY5Y neuroblastoma cells
Description: Eighteen different γ-secretase inhibitors (purchased from Calbiochem) were tested for their ability to stabilize the PS1 precursor. SH-SY5Y neuroblastoma cells (1e6) incubated in 6-well plates were dosed with ˜50 uM γ-secretase inhibitor (10% FBS, DMEM) for 24 hrs. Cells were lysed in 2% CHAPS (TBS+protease inhibitors), cell debris pelleted at 18,000 g. Total protein in cell lysates were determined by BCA and 25 ug of protein/lane loaded onto 4-12% BisTris NuPage gels (Invitrogen) that were electrophoresed at 150V for 1 hr. Gels were transferred to PVDF (25V, 1 hr) and probed with anti-N-term PS1 (1:1000, Abcam cat. #ab10281). Western blots were developed using chemiluminescence and imaged using an Alpha Innotech FluorChem Q imaging system. Γ-secretase inhibitors tested: PME, XX, XVII, X, IX, IV, II, I-40, VII, V, III, II-40, I, XIII, XVI, XIX, XXI, CW.
The mature form of PS1 (where PS1 is processed to form a heterodimer) is evidenced by a prominent band at 27 kDa (developed using an antibody specific for the N-terminus of PS1) and is present in all samples. […] The increase in PS1 precursor protein level is interpreted as stabilization of the PS1 precursor and the stabilization appears to be mechanistically distinct from the inhibition of γ-secretase activity since there is no correlation between γ-secretase inhibitory potency (IC50 for Abeta production) and levels of stabilized PS1 precursor (see Table 1).

[4] = target: T2, γ-secretase complex (Homo sapiens, UniProt P49768); assay: Native gel of intact γ-secretase complex from treated fibroblasts; format: cell-based; settings: wildtype fibroblasts CRL2076, 0-100 uM for 24 hrs, 6 hr wash out
T2 construct: The mature form of presenlin is a heterodimer consisting of a ˜30 kDa NH2-terminal fragment (NTF) and a ˜20 kDa C-terminal fragment; host or cells: wild-type fibroblasts CRL2076
Description: Wildtype fibroblasts (CRL2076) in a 6-well plate were treated with different doses of γ-secretase inhibitor IV (0, 3.1, 6.25, 12.5, 25 and 100 uM) for 24 hrs, followed by a 6 hr wash out period. Fibroblasts were harvested by gentle scraping in TBS, collected by centrifugation (5000 g, 5 min) and lysed in 1% digitonin (50 mM NaCl, 50 mM Hepes, pH 7.3) overnight at 4° C. Nonsolubilized cell debris was removed by centrifugation (15,000 g, 10 min.). Total protein was determined by BCA and equivalent proteins loads of 40 ug/lane were separated on a 4-16% native BisTris polyacrylamide gel using Blue-Native cathode and anode buffer system (Invitrogen). The native gel was transferred to PVDF (25V, 1 hr in NuPage Transfer buffer), blocked with Blotto (Pierce) and probed with anti-N-term PS1 (1:1000, Abcam cat. #ab10281) followed by development using an anti-rabbit alkaline phosphatase conjugate, chemiluminescence detection and imaged using an Alpha Innotech FluorChem Q imaging system.

[5] = target: T3, mature PS1 (Homo sapiens, UniProt P49768); assay: Mature PS1 dose response to four day treatment, western blot; format: cell-based; settings: SY5Y neuroblastomas, four days of treatment, different concentrations
T3 construct: The mature form of PS1 (where PS1 is processed to form a heterodimer) is evidenced by a prominent band at 27 kDa; The mature form of presenlin is a heterodimer consisting of a ˜30 kDa NH2-terminal fragment (NTF) and a ˜20 kDa C-terminal fragment; endogenous in cells; host or cells: SH-SY5Y neuroblastoma cells
Description: SY5Y neuroblastomas grown in 6-well plates were dosed with different concentrations of γ-secretase inhibitors IX, XXI, and XX for four days, after which the cells were harvested by centrifugation (5000 g, 5 min.), lysed in RIPA buffer (TBS, 1% TX100, 0.5% taurodeoxycholate, 0.1% SDS plus protease inhibitors) and cleared of unsolubilized cell debris by centrifugation (15,000 g, 10 min., 4 C). Total protein was determined by BCA and equivalent protein loads of 50 ug/lane were separated on a 4-12% BisTris NuPage polyacrylamide gel (Invitrogen) then transferred to PVDF (25V, 1 hr in NuPage Transfer buffer). Western blots were probed with anti-N-term PS1 (1:1000, Abcam cat. #ab10281) followed by development using an anti-rabbit alkaline phosphatase conjugate, chemiluminescence detection and imaged using an Alpha Innotech FluorChem Q imaging system. After PS1 bands were quantified using the FluorChem Q band analysis software, blots were stripped and re-probed for actin (rabbit anti-actin, Pierce Chemicals).

PS1 Precursor Enhancement [3] | PS1 precursor (45 kDa band) level / stabilization [3] | mature PS1 protein levels [5] | Compound | time at which increase in PS1 precursor is first evident [1] [h] | time at which maximum PS1 precursor level is reached [1] [h] | IC50 [2] [nM] | band intensity / level of the γ-secretase complex [4]
+++ | significantly increased |  | CC(C)C[C@H](NC(=O)[C@H](Cc1ccccc1)C[C@@H](O)[C@H](Cc1ccccc1)NC(=O)OC(C)(C)C)C(=O)N[C@@H](Cc1ccccc1)C(N)=O [X, tert-butyl ((2S,3R,5R)-6-(((S)-1-(((S)-1-amino-1-oxo-3-phenylpropan-2-yl)amino)-4-methyl-1-oxopentan-2-yl)amino)-5-benzyl-3-hydroxy-6-oxo-1-phenylhexan-2-yl)carbamate] | 2 | 24 | 17 | 
− |  |  | CC(C)CC(C=O)NC(=O)C(CC(C)C)NC(=O)OC1CC(C)CCC1C(C)C (stereo not drawn) [VII] |  |  | 2300 | 
− |  |  | CC(C)CC(NC(=O)OCc1ccccc1)C(=O)NC(C=O)Cc1ccccc1 (stereo not drawn) [V] (Cbz-Leu-Phe-aldehyde; configuration not given here) |  |  | 5000 | 
+ | significantly increased |  | (11S)-19-tert- butyl 1-methyl 2,14-di- sec-butyl-9,9-difluoro- 5,17-diisopropyl-11- methyl-4,8,10,15,18- pentaoxo-3,6,7,12,13,16- hexaazanon |  |  | 13000 | 
− |  |  | CC(C)C(C=O)NC(=O)C(NC(=O)CNC(=O)OC(C)(C)C)C(C)C (stereo not drawn) [II-40] (Boc-Gly-Val-Val-aldehyde; configuration not given here) |  |  |  | 
− |  |  | CC(C)C[C@@H](C=O)NC(=O)[C@@H](CC(C)C)NC(=O)OCc1ccccc1 [III] |  |  | 35000 | 
− |  |  | COC(=O)[C@@H](NC(=O)[C@H](C)NC(=O)Cc1cc(F)cc(F)c1)c1ccccc1 [XVI] |  |  | 10 | 
++ | significantly increased |  | CC(C)[C@H](NC(=O)c1ccc2ccccc2c1)C(=O)N[C@H](C=O)Cc1ccccc1 [IV, N-((S)-3-methyl-1-oxo-1-(((S)-1-oxo-3-phenylpropan-2-yl)amino)butan-2-yl)-2-naphthamide] |  |  | 2600 | increased levels of the γ-secretase complex; also recorded: increases as a function of increasing concentration
+ | significantly increased |  | CCCCC(C=O)NC(=O)[C@H](CC(C)C)NC(=O)[C@@H](CC(C)C)NC(=O)OCc1ccccc1 (stereo partly drawn) [I, benzyl ((2R)-4-methyl-1-(((2S)-4-methyl-1-oxo-1-((1-oxohexan-2-yl)amino)pentan-2-yl)amino)-1-oxopentan-2-yl)carbamate] (Cbz-[dL]-Leu-[ξNle]-aldehyde) |  |  |  | 
+ | significantly increased |  | CCC(C)C(NC(=O)[C@H](Cc1ccc(O)cc1)NC(=O)OCc1ccccc1)C(=O)N[C@H](C=O)CC(C)C (stereo partly drawn) [XIII, benzyl ((2S)-3-(4-hydroxyphenyl)-1-((3-methyl-1-(((S)-4-methyl-1-oxopentan-2-yl)amino)-1-oxopentan-2-yl)amino)-1-oxopropan-2-yl)carbamate] |  |  | 8 | 
− | does not stabilize the PS1 precursor | dose dependent increase | C[C@H](NC(=O)Cc1cc(F)cc(F)c1)C(=O)N[C@H](C(=O)OC(C)(C)C)c1ccccc1 [IX, (S)-tert-butyl 2-((S)-2-(2-(3,5-difluorophenyl)acetamido)propanamido)-2-phenylacetate] |  |  |  | 
− |  |  | COC(=O)[C@@H](NC(=O)[C@H](CC(C)C)NC(=O)N(Cc1ccccc1)C[C@@H](O)[C@H](Cc1ccccc1)NC(=O)OC(C)(C)C)C(C)C [XVII, (6S,7R,12S,15S)-methyl 6,9-dibenzyl-7-hydroxy-12-isobutyl-15-isopropyl-2,2-dimethyl-4,10,13-trioxo-3-oxa-5,9,11,14-tetraazahexadecan-16-oate] |  |  | 300 | 
− | significantly increased |  | CCC(C)C(NC(=O)C=Cc1cc(OC)cc(OC)c1)C(=O)NC(C=O)CC(C)C (stereo not drawn) [I-40, trans-3,5-DMC-Ile-Leu-CHO] |  |  | 15000 | 

Compound | PS1 Precursor Enhancement [3] | PS1 precursor (45 kDa band) level / stabilization [3] | mature PS1 protein levels [5] | time at which increase in PS1 precursor is first evident [1] [h] | time at which maximum PS1 precursor level is reached [1] [h] | IC50 [2] [nM] | band intensity / level of the γ-secretase complex [4]
(2R,3R)- 3-(3,4-difluorophenyl)- 2-(4-fluorophenyl)-4- hydroxy-N-((S)-2-oxo-5- phenyl-2,3-dihydro-1H- benzo[e][1,4]diazepin-3- yl)butanamide [XIX] | + | significantly increased |  |  |  | 0.06 | 
C[C@H](NC(=O)Cc1cc(F)cc(F)c1)C(=O)N[C@@H]1C(=O)N(C)c2ccccc2-c2ccccc21 [XX, (S)-2-(2-(3,5-difluoro-phenyl)acetamido)-N-((S)-5-methyl-6-oxo-6,7-dihydro-5H-dibenzo[b,d]azepin-7-yl)propanamide] | +++ | significantly increased; also recorded: do stabilize the PS1 precursor | dose dependent increase |  |  | 1.7 | 
O=C(O)c1cc(Oc2ccc([N+](=O)[O-])cc2)cc(Oc2ccc([N+](=O)[O-])cc2)c1 [CW] | − |  |  |  |  |  | 
